US20090176759A1, “LEUKEMIC STEM CELL ABLATION” (ChemGenex Pharmaceuticals, Inc., priority 2007, published 2009)

Legend:
IM-resistant T315I+CML = experiment: Multicenter open-label phase 2/3 study of subcutaneous omacetaxine, efficacy; assay type: in vivo, human
Excerpt: As used herein, a cytological response to treatment with cephalotaxine and/or TKI is a response that occurs in the bone marrow rather than just in the peripheral blood. There are at least three cytological responses: (1) a cytogenetic response (CR); (2) a major cytogenetic response (MCR); and a complete cytogenetic response (CCR). Determination of such responses is based on the measurement of the number of peripheral blood and/or bone marrow cells having a marker that is associated with a particular leukemia. Such markers include cell surface antigens, aberrant proteins, and genetic modifications. A cytogenetic response occurs if the number or percentage of cells with such a marker decreases during treatment. A major cytogenetic response occurs if the number or percentage of such cells falls below 35%. A complete cytogenetic response occurs when no cells containing the marker are detected. For example, CML is characterized by the Ph+ chromosome. A cytogenetic response has occurred if the number of Ph+ chromosomes decreases at all during treatment. If the Ph+ percentage drops to 35% or less, it is considered a major cytogenetic response; 0% Ph+ is a complete cytogenetic response.
As used herein, a hematological response occurs when there is a change in the white blood cell count of a patient following treatment with cephalotaxine and/or TKI. The change in white blood cell count can be in the peripheral blood and the bone marrow although the change may be observed only in the peripheral blood. The response can be a partial reduction in white cell count or complete reduction to normal values (e.g. 10,000-12,000 cells […].)
This example summarizes human clinical trials using HHT to treat patients with IM-resistant T315I+CML.
A multicenter open-label phase 2/3 study evaluating safety and efficacy of omacetaxine administered subcutaneously (SC) in patients with IM-resistant T315I+CML in all phases of the disease is being conducted.
Induction phase—1.25 mg/m2 twice daily SC for 14 consecutive days every 28 days until complete hematologic response (CHR) or hematologic improvement has been achieved.
Maintenance therapy—1.25 mg/m2 twice daily SC for 7 days every 28 days for up to 24 months.
Doses were adjusted to maintain adequate WBC and platelet control by increasing or decreasing the number of days of administration of omacetaxine.

BCR-ABL-induced B-ALL = experiment: Mice with BCR-ABL-induced B-ALL treated with HHT; assay type: in vivo
Procedure: FIG. 4A is a FACS analysis evaluation of the leukemic process in HHT or placebo treated B-ALL mice after 4 days or 10 days.
Antibodies for Western Blot analysis against c-ABL, Mcl-1 and β-actin were purchased from Santa Cruz Biothechology (Santa Cruz, Calif.). Protein lysates were prepared by lysing cells in RIPA buffer and immunoprecipitation. The retroviral vector MSCV-IRES-eGFP carrying the BCR-ABL cDNA was used to make virus stock for bone marrow transduction/transplantation. Four- to 10-week-old wild-type BABL/c or C57BL/6 (The Jackson Laboratory) and homozygous SRC triple gene knockout (Lyn−/−Hck−/−Fgr−/−) mice were used for leukemogenesis experiments. HHT (ChemGenex Pharmaceuticals, Inc, CA) was dissolved in accompanying diluent to a stock concentration of 1 mg/ml. Further dilutions were made to working concentrations using media or water.

[1] = system: leukemia stem cells of mice with BCR-ABL-WT-induced CML; experiment: Leukemic cells and leukemia stem cells in bone marrow of treated CML mice, FACS; assay type: in vivo; conditions: HHT 0.5 mg/kg once every day, imatinib 100 mg/kg twice a day, by gavage, 4 days beginning at day 8 after transplantation
Procedure: FIG. 5A is a FACS analysis of bone marrow cells isolated from mice with BCR-ABL-WT-induced CML were cultured in vitro (5×10^6 cells/6 cm tissue culture plate) in the presence of different doses of HHT for 6 days (changing the stem cell medium containing placebo or HHT at day 3) followed by FACS analysis of leukemia stem cells (GFP+Lin− c-Kit+Sca-1+). FIG. 5B depicts bar graphs for the leukemic cells and leukemic stem cells. […] Bone marrow cells were isolated from the treated CML mice, and leukemia stem cells were analyzed by FACS. The numbers of cells represent total leukemia stem cells in average from femur and tibia of each treated CML mouse.
Bone marrow cells were isolated from the treated CML mice, and leukemia stem cells were analyzed by FACS. The numbers of cells represent total leukemia stem cells in average from femur and tibia of each treated CML mouse.

[2] = Accelerated Phase, N = 5, median (range)
[3] = Chronic Phase, N = 20, median (range)

In the case of `COC(=O)C[C@](O)(CCCC(C)(C)O)C(=O)O[C@@H]1C(OC)=C[C@]23CCCN2CCc2cc4c(cc2[C@H]13)OCO4` [HHT, Homoharringtonine], the “Median Duration of Response, Cytogenetic Response Minimal” value (IM-resistant T315I+CML; Accelerated Phase, N = 5) is reported as 2.3 Months, the “Median Duration of Response, Hematologic Response HI” value (IM-resistant T315I+CML; Accelerated Phase, N = 5) is reported as 2.8 Months and the “Median Duration of Response, Hematologic Response CHR” value (IM-resistant T315I+CML; [2]) is reported as 9.6 (8.3-10.9+) Months. For the same molecule, the “Median Duration of Response, Hematologic Response RCP” value (IM-resistant T315I+CML; [2]) was 2.0 (2.0-2.0+) Months, the “Complete Hematologic Response (CHR)” value (IM-resistant T315I+CML; Accelerated Phase, N = 11) was 2 (18) Number (%) and the “Cytogenetic Response, Minimal” value (IM-resistant T315I+CML; Accelerated Phase, N = 11) was 1 (9) Number (%). The “Cytogenetic Response, Overall” value (IM-resistant T315I+CML; Accelerated Phase, N = 11) was 1 (9) Number (%), the “Hematologic Improvement (HI)” value (IM-resistant T315I+CML; Accelerated Phase, N = 11) was 1 (9) Number (%) and the “Hematologic Response, Overall” value (IM-resistant T315I+CML; Accelerated Phase, N = 11) was 5 (45) Number (%). For the same molecule, the “Return to Chronic Phase (RCP)” value (IM-resistant T315I+CML; Accelerated Phase, N = 11) was 2 (18) Number (%), the “Median Duration of Response, Hematologic Response RCP” value (IM-resistant T315I+CML; Blast Phase, N = 1) was 3.4 Months and the “Hematologic Response, Overall” value (IM-resistant T315I+CML; Blast Phase, N = 8) was 1 (13) Number (%). The “Return to Chronic Phase (RCP)” value (IM-resistant T315I+CML; Blast Phase, N = 8) was 1 (13) Number (%), the “Median Duration of Response, Cytogenetic Response Partial” value (IM-resistant T315I+CML; Chronic Phase, N = 20) was 4.2 Months and the “Median Duration of Response, Cytogenetic Response Complete” value (IM-resistant T315I+CML; [3]) was 4.8 (0.3-9.7+) Months. The “Median Duration of Response, Cytogenetic Response Minimal” value (IM-resistant T315I+CML; [3]) was 4.0 (3.9-20.8+) Months, the “Median Duration of Response, Hematologic Response CHR” value (IM-resistant T315I+CML; [3]) was 11.5 (3.5-25.4+) Months and the “Complete Hematologic Response (CHR)” value (IM-resistant T315I+CML; Chronic Phase, N = 25) was 20 (80) Number (%). For the same molecule, the “Cytogenetic Response, Complete” value (IM-resistant T315I+CML; Chronic Phase, N = 25) was 4 (16) Number (%), the “Cytogenetic Response, Minimal” value (IM-resistant T315I+CML; Chronic Phase, N = 25) was 2 (8) Number (%) and the “Cytogenetic Response, Overall” value (IM-resistant T315I+CML; Chronic Phase, N = 25) was 7 (28) Number (%). The “Cytogenetic Response, Partial” value (IM-resistant T315I+CML; Chronic Phase, N = 25) was 1 (4) Number (%), the “Hematologic Response, Overall” value (IM-resistant T315I+CML; Chronic Phase, N = 25) was 20 (80) Number (%) and the “Molecular Response, Major” value (IM-resistant T315I+CML; Chronic Phase, N = 25) was 2 (8) Number (%). For the same molecule, the “Cytogenetic Response, Major*” value (IM-resistant T315I+CML; Chronic Phase, N = 25, one complete and one partial cytogenetic response are unconfirmed) was 5 (20) Number (%), the progression free survival (IM-resistant T315I+CML; accelerated phase (AP), after one year) was 25% and the progression free survival (IM-resistant T315I+CML; blast phase (BP), after 6 months) was 44%. The progression free survival (IM-resistant T315I+CML; chronic phase (CP), after 1 year) was 80%, the progression free survival (IM-resistant T315I+CML; chronic phase (CP), after 2 years) was 70% and the “duration of complete hematologic and cytogenetic responses” value (IM-resistant T315I+CML; in vivo) was “up to one year”. For the same molecule, the “leukemic cells (FACS)” value (BCR-ABL-induced B-ALL; B-ALL mice after 4 days or 10 days, HHT vs placebo) was “significant reduction in leukemic cells as a function of treatment time and HHT dosage”, the survival (BCR-ABL-induced B-ALL; B-ALL mice, HHT 1 mg/kg) was “prolonged survival” and the “number of leukemic cells in bone marrow” value [1] was “reduces”. For the same molecule, the “number of leukemic stem cells in bone marrow (femur and tibia)” value [1] was “reduces”.
